# Reference: PubChem BioAssay (NCI)
#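 GI50 = concentration required for 50% inhibition of growth. TGI marks complete inhibition of growth.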
# Legend:
# Test in all cases: growth of human tumour cells (NCI), 384-well format
# SR leukemia = test system: SR leukemia
# A498 renal = test system: A498 renal
# OVCAR-5 ovarian = test system: OVCAR-5 ovarian
# HS 578T breast = test system: HS 578T breast
# 786-0 renal = test system: 786-0 renal
# OVCAR-4 ovarian = test system: OVCAR-4 ovarian
# K-562 leukemia = test system: K-562 leukemia
# TK-10 renal = test system: TK-10 renal
# MOLT-4 leukemia = test system: MOLT-4 leukemia
# NCI-H460 NSCLC = test system: NCI-H460 NSCLC
# BT-549 breast = test system: BT-549 breast
# SW-620 colon = test system: SW-620 colon
# UO-31 renal = test system: UO-31 renal
# HL-60(TB) leukemia = test system: HL-60(TB) leukemia
# SK-OV-3 ovarian = test system: SK-OV-3 ovarian
# MDA-MB-468 breast = test system: MDA-MB-468 breast
# SF-268 CNS = test system: SF-268 CNS
# MCF7 breast = test system: MCF7 breast
# COLO 205 colon = test system: COLO 205 colon
# ACHN renal = test system: ACHN renal
# T-47D breast = test system: T-47D breast
# SNB-75 CNS = test system: SNB-75 CNS
# HT29 colon = test system: HT29 colon
# DU-145 prostate = test system: DU-145 prostate
# M14 melanoma = test system: M14 melanoma
# MDA-MB-231 breast = test system: MDA-MB-231 breast
# SK-MEL-5 melanoma = test system: SK-MEL-5 melanoma
# SF-539 CNS = test system: SF-539 CNS
# SNB-19 CNS = test system: SNB-19 CNS
# CCRF-CEM leukemia = test system: CCRF-CEM leukemia
# NCI/ADR-RES ovarian = test system: NCI/ADR-RES ovarian
# RXF 393 renal = test system: RXF 393 renal
# SK-MEL-2 melanoma = test system: SK-MEL-2 melanoma
# KM12 colon = test system: KM12 colon
# HOP-92 NSCLC = test system: HOP-92 NSCLC
# CAKI-1 renal = test system: CAKI-1 renal
# HCT-116 colon = test system: HCT-116 colon
# NCI-H322M lung = test system: NCI-H322M lung
# HCC-2998 colon = test system: HCC-2998 colon
# LOX IMVI melanoma = test system: LOX IMVI melanoma
# HCT-15 colon = test system: HCT-15 colon
# A549 NSCLC = test system: A549 NSCLC
# SK-MEL-28 melanoma = test system: SK-MEL-28 melanoma
# U251 glioblastoma = test system: U251 glioblastoma
# UACC-257 melanoma = test system: UACC-257 melanoma
# HOP-62 NSCLC = test system: HOP-62 NSCLC
# SF-295 CNS = test system: SF-295 CNS
# OVCAR-3 ovarian = test system: OVCAR-3 ovarian
# IGROV1 ovarian = test system: IGROV1 ovarian
# SN12C renal = test system: SN12C renal
# NCI-H23 lung = test system: NCI-H23 lung
# MDA-MB-435 melanoma = test system: MDA-MB-435 melanoma
# NCI-H226 lung = test system: NCI-H226 lung
# NCI-H522 lung = test system: NCI-H522 lung
# RPMI-8226 leukemia = test system: RPMI-8226 leukemia
# PC-3 prostate = test system: PC-3 prostate
# MALME-3M melanoma = test system: MALME-3M melanoma
# EKVX NSCLC = test system: EKVX NSCLC
# UACC-62 melanoma = test system: UACC-62 melanoma
smiles,measurement,setting,value
O=C(Nc1ccccc1/C=C/c1n[nH]c2ccccc12)c1ccccc1,GI50,SR leukemia,1230 nM
same,TGI,SR leukemia,2510 nM
same,GI50,A498 renal,1840 nM
same,TGI,A498 renal,3.31 µM
same,GI50,OVCAR-5 ovarian,1400 nM
same,TGI,OVCAR-5 ovarian,3.33 µM
same,GI50,HS 578T breast,1650 nM
same,TGI,HS 578T breast,3.11 µM
same,GI50,786-0 renal,1820 nM
same,TGI,786-0 renal,3.31 µM
same,GI50,OVCAR-4 ovarian,4.22 µM
same,TGI,OVCAR-4 ovarian,17.2 µM
same,GI50,K-562 leukemia,1370 nM
same,TGI,K-562 leukemia,2770 nM
same,GI50,TK-10 renal,1500 nM
same,TGI,TK-10 renal,3.14 µM
same,GI50,MOLT-4 leukemia,1650 nM
same,TGI,MOLT-4 leukemia,3.35 µM
same,GI50,NCI-H460 NSCLC,1480 nM
same,TGI,NCI-H460 NSCLC,2900 nM
same,GI50,BT-549 breast,1950 nM
same,TGI,BT-549 breast,3.46 µM
same,GI50,SW-620 colon,1870 nM
same,TGI,SW-620 colon,5.3 µM
same,GI50,UO-31 renal,10.4 µM
same,TGI,UO-31 renal,22.3 µM
same,GI50,HL-60(TB) leukemia,538 nM
same,TGI,HL-60(TB) leukemia,1880 nM
same,GI50,SK-OV-3 ovarian,2870 nM
same,TGI,SK-OV-3 ovarian,11.6 µM
same,GI50,MDA-MB-468 breast,1640 nM
same,TGI,MDA-MB-468 breast,3.65 µM
same,GI50,SF-268 CNS,1710 nM
same,TGI,SF-268 CNS,3.26 µM
same,GI50,MCF7 breast,514 nM
same,TGI,MCF7 breast,11.4 µM
same,GI50,COLO 205 colon,1300 nM
same,TGI,COLO 205 colon,2590 nM
same,GI50,ACHN renal,2630 nM
same,TGI,ACHN renal,8.82 µM
same,GI50,T-47D breast,1900 nM
same,TGI,T-47D breast,4.05 µM
same,GI50,SNB-75 CNS,2160 nM
same,TGI,SNB-75 CNS,4.81 µM
same,GI50,HT29 colon,1490 nM
same,TGI,HT29 colon,2850 nM
same,GI50,DU-145 prostate,1470 nM
same,TGI,DU-145 prostate,3.04 µM
same,GI50,M14 melanoma,3.42 µM
same,TGI,M14 melanoma,14.3 µM
same,GI50,MDA-MB-231 breast,1480 nM
same,TGI,MDA-MB-231 breast,2990 nM
same,GI50,SK-MEL-5 melanoma,1560 nM
same,TGI,SK-MEL-5 melanoma,6.1 µM
same,GI50,SF-539 CNS,2040 nM
same,TGI,SF-539 CNS,4.76 µM
same,GI50,SNB-19 CNS,1980 nM
same,TGI,SNB-19 CNS,4.38 µM
same,GI50,CCRF-CEM leukemia,1580 nM
same,TGI,CCRF-CEM leukemia,2960 nM
same,GI50,NCI/ADR-RES ovarian,1990 nM
same,TGI,NCI/ADR-RES ovarian,4.43 µM
same,GI50,RXF 393 renal,2930 nM
same,TGI,RXF 393 renal,8.11 µM
same,GI50,SK-MEL-2 melanoma,3.88 µM
same,TGI,SK-MEL-2 melanoma,5.81 µM
same,GI50,KM12 colon,40.8 nM
same,TGI,KM12 colon,1010 nM
same,GI50,HOP-92 NSCLC,1520 nM
same,TGI,HOP-92 NSCLC,5.05 µM
same,GI50,CAKI-1 renal,2460 nM
same,TGI,CAKI-1 renal,9.91 µM
same,GI50,HCT-116 colon,1490 nM
same,TGI,HCT-116 colon,2990 nM
same,GI50,NCI-H322M lung,1840 nM
same,TGI,NCI-H322M lung,3.97 µM
same,GI50,HCC-2998 colon,1280 nM
same,TGI,HCC-2998 colon,2580 nM
same,GI50,LOX IMVI melanoma,1900 nM
same,TGI,LOX IMVI melanoma,3.45 µM
same,GI50,HCT-15 colon,1460 nM
same,TGI,HCT-15 colon,2820 nM
same,GI50,A549 NSCLC,1740 nM
same,TGI,A549 NSCLC,3.39 µM
same,GI50,SK-MEL-28 melanoma,2370 nM
same,TGI,SK-MEL-28 melanoma,8.16 µM
same,GI50,U251 glioblastoma,1550 nM
same,TGI,U251 glioblastoma,2910 nM
same,GI50,UACC-257 melanoma,1940 nM
same,TGI,UACC-257 melanoma,4.3 µM
same,GI50,HOP-62 NSCLC,1550 nM
same,TGI,HOP-62 NSCLC,2950 nM
same,GI50,SF-295 CNS,1630 nM
same,TGI,SF-295 CNS,3 µM
same,GI50,OVCAR-3 ovarian,1390 nM
same,TGI,OVCAR-3 ovarian,2930 nM
same,GI50,IGROV1 ovarian,5.77 µM
same,TGI,IGROV1 ovarian,19.6 µM
same,GI50,SN12C renal,1530 nM
same,TGI,SN12C renal,2900 nM
same,GI50,NCI-H23 lung,1160 nM
same,TGI,NCI-H23 lung,12.4 µM
same,GI50,MDA-MB-435 melanoma,1530 nM
same,TGI,MDA-MB-435 melanoma,4.46 µM
same,GI50,NCI-H226 lung,1480 nM
same,TGI,NCI-H226 lung,8.44 µM
same,GI50,NCI-H522 lung,2360 nM
same,TGI,NCI-H522 lung,8.59 µM
same,GI50,RPMI-8226 leukemia,1560 nM
same,TGI,RPMI-8226 leukemia,2970 nM
same,GI50,PC-3 prostate,1450 nM
same,TGI,PC-3 prostate,2790 nM
same,GI50,MALME-3M melanoma,1290 nM
same,TGI,MALME-3M melanoma,2680 nM
same,GI50,EKVX NSCLC,1430 nM
same,TGI,EKVX NSCLC,3.94 µM
same,GI50,UACC-62 melanoma,1890 nM
same,TGI,UACC-62 melanoma,3.94 µM
